Source: patent US9963466B2, “Substituted 5-membered heterocyclic analogs as protease activated receptor 4 (PAR-4) antagonists” (Vanderbilt University, priority 2016, dated 2018)
Bridge positions count the residues as written; N and C are the ends. Square brackets hold non-standard residues; d marks the D form. Ends that are not written are not given here. Peptide text beside a SMILES is read from it. * marks the point of attachment. Palmitoyl = CCCCCCCCCCCCCCCC(=O)*; hArg = N=C(N)NCCCC[C@H](N)C(=O)O; Mpa = O=C(O)CCS

What was measured:
[1] = target: T1, protease-activated receptor type 4 (PAR4) (Homo sapiens, UniProt Q96RI0); settings: abstract of Lee et al. 2001; cited from earlier work
T1 construct: host or cells: platelets
T1 sequence (Q96RI0 18-385): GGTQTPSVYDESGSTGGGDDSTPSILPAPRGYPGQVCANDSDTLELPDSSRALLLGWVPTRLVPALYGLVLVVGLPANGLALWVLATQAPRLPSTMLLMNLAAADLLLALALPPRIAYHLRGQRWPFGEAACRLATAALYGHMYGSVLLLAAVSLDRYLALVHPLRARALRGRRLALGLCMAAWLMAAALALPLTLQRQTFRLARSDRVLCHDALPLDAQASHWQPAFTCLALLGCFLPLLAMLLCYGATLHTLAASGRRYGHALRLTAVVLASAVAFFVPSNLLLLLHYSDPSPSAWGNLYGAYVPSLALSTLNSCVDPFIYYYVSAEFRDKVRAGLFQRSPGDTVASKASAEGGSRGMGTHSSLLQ

PAR4 [2] = target: T2, PAR4 (Homo sapiens, UniProt Q96RI0); experiment: PAC-1 binding assay, washed platelets stimulated with PAR-4-AP (flow cytometry); type: cell-based; settings: PAR-4-AP stimulation, dose response curve
T2 construct: 60 μL of washed platelets (Tyrodes buffer containing 0.1% BSA); endogenous in cells; host or cells: washed platelets
T2 sequence (Q96RI0 18-385): T1 sequence (Q96RI0 18-385)
Method: (§1) PAC-1 Binding assay: 60 μL of washed platelets (Tyrodes buffer containing 0.1% BSA) at a concentration of 0.15×10^8 platelets/mL were added to 5 mL round bottom polystyrene tubes (BD, Franklin Lakes, N.J.). FITC conjugated PAC-1 (BD Biosciences, San Jose, Calif.) antibody was diluted (to the manufacturers recommended concentration) in Tyrode's buffer containing 0.1% BSA. 40 μL of diluted antibody was added to the platelets and allowed to incubate for 5 minutes. Platelets were pre-treated with indicated concentrations of antagonist or DMSO control for 5 minutes followed by addition of PAR-1-AP (GL Biochem, Shanghai, China) or PAR-4-AP for 10 minutes. Platelet activity was quenched by the addition ice cold 1.5% paraformaldehyde followed by dilution in 1× phosphate buffered saline. The final DMSO concentration was 0.5%. Platelets were stored up to 18 hours at 4° C. before flow cytometric analysis. Analysis was carried out on a BD FACS Canto II (Franklin Lakes, N.J.). Fluorescent intensity was determined for 100,000 events within the platelet gate. Data was collected and analyzed via FACS DiVa software. Flow cytometric data analysis was conducted by the following method. The DMSO-vehicle treated control was subtracted from each data point. 100% response for PAR-4-AP was determined for each individual as the DMSO treated control stimulated with either 200 μM PAR-4-AP, or 20 μM PAR-1-AP. Data was plotted in GraphPad PRISM v.5.0. For compounds with a notable reduction in PAC-1 binding response, a dose response curves and subsequent IC50 values were generated using the inhibitory sigmoidal dose response ‘variable slope’ parameter. PAR-4 results were plotted as mean±SEM.

PAR4 [3] = target: T2, PAR4; experiment: PAC-1 binding assay, platelets stimulated with γ-thrombin; type: cell-based; settings: stimulation with 316 nM γ-thrombin; compound concentration not given
Source text: Gamma-thrombin is a proteolytic product of alpha-thrombin cleavage by a serine protease. Cleavage results in the disruption of exosite I which interacts directly with the hirudin-like domain of its primary substrates fibrinogen and protease-activated receptor 1 (PAR1). As a result, gamma-thrombin selectively cleaves PAR4 in the nanomolar range, leaving PAR1 intact. See Soslau, G., Class, R., Morgan, D. A., Foster, C., Lord, S. T., Marchese, P., and Ruggeri, Z. M. (2001) Unique pathway of thrombin-induced platelet aggregation mediated by glycoprotein Ib, The Journal of biological chemistry 276, 21173-21183. Gamma-thrombin (Enzyme Research Laboratories, South Bend, Ind.) is produced by trypsin-sepharose cleavage of alpha-thrombin. To neutralize alpha-thrombin contamination, stock solutions of gamma-thrombin are preincubated with 1 unit/mL hirudin prior 100 fold dilution into the sample for platelet stimulation. This concentration of hirudin is capable of abolishing alpha-thrombin activity with no effect on the activity of gamma-thrombin. See Soslau, G., Goldenberg, S. J., Class, R., and Jameson, B. (2004) Differential activation and inhibition of human platelet thrombin receptors by structurally distinct alpha-, beta- and gamma-thrombin, Platelets 15, 155-166. Single point screens and concentration response curves are conducted with 316 nanomolar or 100 nanomolar gamma-thrombin using PAC1 and CD61p binding.
as §1

PAR1 [4] = target: T3, PAR1 (Homo sapiens, UniProt P25116); settings: cited from earlier work
T3 construct: host or cells: patients, in vivo
T3 sequence (P25116 22-425): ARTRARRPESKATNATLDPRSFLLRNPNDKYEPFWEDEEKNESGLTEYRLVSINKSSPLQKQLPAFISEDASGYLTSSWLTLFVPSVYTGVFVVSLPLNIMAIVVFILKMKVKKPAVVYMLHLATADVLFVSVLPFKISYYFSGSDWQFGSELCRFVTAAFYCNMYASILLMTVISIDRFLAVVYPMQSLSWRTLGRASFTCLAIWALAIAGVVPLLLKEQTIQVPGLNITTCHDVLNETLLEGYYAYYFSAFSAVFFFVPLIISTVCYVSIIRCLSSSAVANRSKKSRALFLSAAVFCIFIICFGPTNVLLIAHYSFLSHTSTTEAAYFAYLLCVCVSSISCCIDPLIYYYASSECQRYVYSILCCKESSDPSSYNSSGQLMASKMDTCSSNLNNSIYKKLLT

PAR1 [5] = target: T3, PAR1; settings: cited from earlier work; remark: listed apart in the source
influenza viruses = settings: mice treated with GPIIbIIIa antagonist; cited from earlier work
PAR4 [6] = target: T4, PAR4 (Rattus norvegicus, UniProt Q920E0); settings: rat hindpaw, carrageenan; cited from earlier work
T4 construct: host or cells: rat, in vivo
T4 sequence (Q920E0 17-395): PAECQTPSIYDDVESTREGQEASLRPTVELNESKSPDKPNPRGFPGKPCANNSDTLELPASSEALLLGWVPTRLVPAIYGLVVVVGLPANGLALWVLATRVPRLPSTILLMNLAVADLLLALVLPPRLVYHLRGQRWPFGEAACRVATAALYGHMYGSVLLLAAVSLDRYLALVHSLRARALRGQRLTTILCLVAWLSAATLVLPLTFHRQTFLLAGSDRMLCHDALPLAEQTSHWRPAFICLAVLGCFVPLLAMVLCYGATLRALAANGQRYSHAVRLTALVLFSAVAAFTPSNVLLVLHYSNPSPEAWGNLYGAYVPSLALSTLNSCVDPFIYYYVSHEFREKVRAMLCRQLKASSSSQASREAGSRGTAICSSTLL

PAR4 [7] = target: T5, PAR4 (Mus musculus, UniProt O88634); settings: cited from earlier work
T5 construct: PAR4-AP, or Trypsin injected pleural cavities of mice; host or cells: mouse, in vivo
T5 sequence (O88634 17-396): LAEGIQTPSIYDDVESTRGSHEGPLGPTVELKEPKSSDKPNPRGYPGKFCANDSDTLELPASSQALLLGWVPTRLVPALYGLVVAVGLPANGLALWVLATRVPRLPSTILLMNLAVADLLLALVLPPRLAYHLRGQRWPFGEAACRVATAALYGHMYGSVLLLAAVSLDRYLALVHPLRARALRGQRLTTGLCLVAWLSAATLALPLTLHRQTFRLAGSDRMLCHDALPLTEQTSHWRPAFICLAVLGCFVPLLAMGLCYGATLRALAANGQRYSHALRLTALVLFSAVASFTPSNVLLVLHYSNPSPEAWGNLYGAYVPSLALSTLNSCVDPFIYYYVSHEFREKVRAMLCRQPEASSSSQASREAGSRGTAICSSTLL

PAR4 [8] = target: T4, PAR4; settings: rat myocardial ischemia/reperfusion; cited from earlier work
[9] = patients with myocardial infarction, added to standard anti-platelet therapy
[10] = patients with peripheral artery disease
[11] = patients with prior ischemic stroke, added to standard of care
[12] = non-ST-segment ACS patients undergoing CABG
[13] = non-ST-segment elevation ACS patients

CCOC(=O)c1ccc(-c2nn(Cc3ccccc3)c3ccccc23)cc1
inhibition of PAR4-dependent platelet activation [1]: selective and potent inhibitor

COC(=O)c1[nH]c2ccc(OC(F)(F)F)cc2c1-c1cn2nc(OC)sc2n1 [Example B1, Methyl 3-(2-methoxyimidazo[2,1-b][1,3,4]thiadiazol-6-yl)-5-(trifluoromethoxy)-1H-indole-2-carboxylate]
IC50 (PAR4 [2]): 2110 nM | γ-thrombin % Max PAC-1 binding (316 nM) (PAR4 [3]): 100%

COc1nn2cc(-c3cc(-c4ccc(Cl)cc4)no3)nc2s1 [Example B2]
IC50 (PAR4 [2]): 1930 nM | γ-thrombin % Max PAC-1 binding (316 nM) (PAR4 [3]): 94%

COc1nn2cc(-c3csc4ccccc34)nc2s1 [Example B3]
IC50 (PAR4 [2]): 458 nM | γ-thrombin % Max PAC-1 binding (316 nM) (PAR4 [3]): 99%

COc1nn2cc(-c3c(-c4ccccc4)noc3C)nc2s1 [Example B4]
γ-thrombin % Max PAC-1 binding (316 nM) (PAR4 [3]): 93%

COc1nn2cc(-c3cnn(-c4ccccc4)c3C)nc2s1 [Example B5]
IC50 (PAR4 [2]): 1530 nM | γ-thrombin % Max PAC-1 binding (316 nM) (PAR4 [3]): 95%

COc1nn2cc(-c3sc(-c4ccccc4)nc3C)nc2s1 [Example B6]
IC50 (PAR4 [2]): 69.8 nM | γ-thrombin % Max PAC-1 binding (316 nM) (PAR4 [3]): 92%

COc1nn2cc(-c3nccs3)nc2s1 [Example B7]
γ-thrombin % Max PAC-1 binding (316 nM) (PAR4 [3]): 98%

COc1nn2cc(-c3ccc(-c4ccccc4)s3)nc2s1 [Example B8, 2-Methoxy-6-(5-phenylthiophen-2-yl)imidazo[2,1-b][1,3,4]thiadiazole]
IC50 (PAR4 [2]): 7.46 nM | γ-thrombin % Max PAC-1 binding (316 nM) (PAR4 [3]): 78%

CCOC(=O)N[C@@H]1CC[C@@H]2[C@@H](C1)C[C@H]1C(=O)O[C@H](C)[C@H]1[C@H]2/C=C/c1ccc(-c2cccc(F)c2)cn1 [Vorapaxar]
moderate to severe bleeding (PAR1 [4]; [9]): significant increase | risk of cardiovascular death or ischaemic events (PAR1 [4]; [9]): reduced the risk | limb ischemia and peripheral revascularization (PAR1 [4]; [10]): significant beneficial effects | risk of bleeding (PAR1 [4]; [10]): increased risk of bleeding | major vascular events (PAR1 [4]; [11]): without improvement | risk of intracranial hemorrhage (PAR1 [4]; [11]): increased the risk | ischemic events (PAR1 [5]; [12]): significant reduction | major CABG-related bleeding (PAR1 [5]; [12]): no significant increase | primary composite endpoint (PAR1 [5]; [13]): did not significantly reduce | risk of major bleeding, including intracranial hemorrhage (PAR1 [5]; [13]): significant increase

N=C(N)NCCCC[C@@H]1NC(=O)CCSSC[C@@H](C(N)=O)NC(=O)[C@@H]2CCCN2C(=O)[C@H](Cc2c[nH]c3ccccc23)NC(=O)[C@H](CC(=O)O)NC(=O)CNC1=O [eptifibatide] ([Mpa][hArg]GDWPC-NH2; disulfide 1-7)
protection from death caused by influenza viruses (influenza viruses): had the same effect

palmitoly-SGRRYGHALR (Palmitoyl-SGRRYGHALR) [palmitoylated peptide named beside P4pal-10 in the carrageenan model]
edema and granulocyte recruitment (PAR4 [6]): reduced edema and granulocyte recruitment

trans-cinnamoyl-YPGKF [tcY-NH2]
neutrophil migration (PAR4 [7]; CXCL8, carrageenan, PAR4-AP or Trypsin injected pleural cavities of mice): inhibit neutrophil migration | eosinophil recruitment (PAR4 [7]; after intrapleural injection of Eotaxin-1): blocks eosinophil recruitment | infarct size (PAR4 [8]): reduced infarct size
